Data from PubChem BioAssay AID1259407 (Chemical Carcinogenesis Research Information System (CCRIS), 2018).
Active and inactive are the calls of the source. No rule for the calls is given here.

Test system: CCRIS mutagenicity, Ames/micronucleus/aberration tests
Assay: CCRIS mutagenicity studies
[1] = Test System: AMES SALMONELLA TYPHIMURIUM, Strain/Indicator: TA100, Metabolic Activation: NONE, Method: PREINCUBATION
[2] = Test System: AMES SALMONELLA TYPHIMURIUM, Strain/Indicator: TA1537, Metabolic Activation: NONE, Method: PREINCUBATION
[3] = Test System: AMES SALMONELLA TYPHIMURIUM, Strain/Indicator: TA98, Metabolic Activation: NONE, Method: STANDARD PLATE
[4] = Test System: AMES SALMONELLA TYPHIMURIUM, Strain/Indicator: TA98, Metabolic Activation: RAT, LIVER, S-9, AROCLOR 1254, Method: STANDARD PLATE
[5] = Test System: AMES SALMONELLA TYPHIMURIUM, Strain/Indicator: TA100, Metabolic Activation: NONE, Method: STANDARD PLATE
[6] = Test System: AMES SALMONELLA TYPHIMURIUM, Strain/Indicator: TA100, Metabolic Activation: RAT, LIVER, S-9, AROCLOR 1254, Method: STANDARD PLATE
[7] = Test System: AMES SALMONELLA TYPHIMURIUM, Strain/Indicator: TA1535, Metabolic Activation: NONE, Method: STANDARD PLATE
[8] = Test System: AMES SALMONELLA TYPHIMURIUM, Strain/Indicator: TA1535, Metabolic Activation: RAT, LIVER, S-9, AROCLOR 1254, Method: STANDARD PLATE
[9] = Test System: AMES SALMONELLA TYPHIMURIUM, Strain/Indicator: TA1537, Metabolic Activation: NONE, Method: STANDARD PLATE
[10] = Test System: AMES SALMONELLA TYPHIMURIUM, Strain/Indicator: TA1537, Metabolic Activation: RAT, LIVER, S-9, AROCLOR 1254, Method: STANDARD PLATE

O=C(NO)c1ccccc1
mutagenic call (Test System: AMES SALMONELLA TYPHIMURIUM, Strain/Indicator: TA97, Metabolic Activation: HAMSTER, LIVER, S-9, AROCLOR 1254 (10%), Method: PREINCUBATION): active; positive | mutagenic call (Test System: AMES SALMONELLA TYPHIMURIUM, Strain/Indicator: TA97, Metabolic Activation: NONE, Method: PREINCUBATION): active; positive | mutagenic call (Test System: AMES SALMONELLA TYPHIMURIUM, Strain/Indicator: TA97, Metabolic Activation: RAT, LIVER, S-9, AROCLOR 1254 (10%), Method: PREINCUBATION): active; positive | mutagenic call (Test System: AMES SALMONELLA TYPHIMURIUM, Strain/Indicator: TA98, Metabolic Activation: HAMSTER, LIVER, S-9, AROCLOR 1254 (10 OR 30%), Method: PREINCUBATION): active; positive | mutagenic call (Test System: AMES SALMONELLA TYPHIMURIUM, Strain/Indicator: TA98, Metabolic Activation: NONE, Method: PREINCUBATION): active; positive | mutagenic call (Test System: AMES SALMONELLA TYPHIMURIUM, Strain/Indicator: TA98, Metabolic Activation: RAT, LIVER, S-9, AROCLOR 1254 (10%), Method: PREINCUBATION): active; positive | mutagenic call (Test System: AMES SALMONELLA TYPHIMURIUM, Strain/Indicator: TA98, Metabolic Activation: RAT, LIVER, S-9, AROCLOR 1254 (30%), Method: PREINCUBATION): active; positive | mutagenic call (Test System: AMES SALMONELLA TYPHIMURIUM, Strain/Indicator: TA100, Metabolic Activation: HAMSTER, LIVER, S-9, AROCLOR 1254 (10 OR 30%), Method: PREINCUBATION): active; positive | mutagenic call [1]: active; positive | mutagenic call (Test System: AMES SALMONELLA TYPHIMURIUM, Strain/Indicator: TA100, Metabolic Activation: RAT, LIVER, S-9, AROCLOR 1254 (10 OR 30%), Method: PREINCUBATION): active; positive | mutagenic call (Test System: AMES SALMONELLA TYPHIMURIUM, Strain/Indicator: TA1535, Metabolic Activation: HAMSTER, LIVER, S-9, AROCLOR 1254 (10%), Method: PREINCUBATION): active; positive | mutagenic call (Test System: AMES SALMONELLA TYPHIMURIUM, Strain/Indicator: TA1535, Metabolic Activation: NONE, Method: PREINCUBATION): inactive; negative | mutagenic call (Test System: AMES SALMONELLA TYPHIMURIUM, Strain/Indicator: TA1535, Metabolic Activation: RAT, LIVER, S-9, AROCLOR 1254 (10%), Method: PREINCUBATION): active; positive | mutagenic call (Test System: AMES SALMONELLA TYPHIMURIUM, Strain/Indicator: TA1537, Metabolic Activation: HAMSTER, LIVER, S-9, AROCLOR 1254 (10%), Method: PREINCUBATION): active; positive | mutagenic call [2]: active; positive | mutagenic call (Test System: AMES SALMONELLA TYPHIMURIUM, Strain/Indicator: TA1537, Metabolic Activation: RAT, LIVER, S-9, AROCLOR 1254 (10%), Method: PREINCUBATION): active; positive

CN(C)CCC=C1c2ccccc2CCc2ccccc21
mutagenic call [3]: inactive; negative | mutagenic call [4]: inactive; negative | mutagenic call [5]: inactive; negative | mutagenic call [6]: inactive; negative | mutagenic call [7]: inactive; negative | mutagenic call [8]: inactive; negative | mutagenic call [9]: inactive; negative | mutagenic call [10]: inactive; negative

COc1ccc(Cc2nccc3cc(OC)c(OC)cc23)cc1OC
mutagenic call (Test System: AMES SALMONELLA TYPHIMURIUM, Strain/Indicator: TA100, Metabolic Activation: RAT, LIVER, S-9, PHENOBARBITAL AND BETA-NAPHTHOFLAVONE, Method: PREINCUBATION): active; positive

O=C(c1ccc(O)cc1)c1ccc(O)cc1
mutagenic call (End Point: In vitro micronucleus, Test System: HepG2 cells, Metabolic Activation: None): inactive; negative

CC(=O)Nc1ccc(Cc2ccc(N)c(Cl)c2)cc1Cl
mutagenic call [1]: inactive; negative | mutagenic call (Test System: AMES SALMONELLA TYPHIMURIUM, Strain/Indicator: TA100, Metabolic Activation: RAT, LIVER, S-9, AROCLOR 1254 (50, 100 OR 200 µL), Method: PREINCUBATION): active; positive

O=C(OCc1ccc(Cl)cc1Cl)c1cccc2cccnc12
mutagenic call [3]: inactive; negative | mutagenic call [4]: inactive; negative | mutagenic call [5]: inactive; negative | mutagenic call [6]: inactive; negative | mutagenic call [7]: inactive; negative | mutagenic call [8]: inactive; negative | mutagenic call [9]: inactive; negative | mutagenic call [10]: inactive; negative

Nc1c2ccccc2nc2ccc(Br)cc12
mutagenic call [2]: active; positive

CNN(C)c1ccn([C@@H]2O[C@H](CO)[C@@H](O)[C@H]2O)c(=O)n1
mutagenic call (Test System: CHINESE HAMSTER V-79, Strain/Indicator: V-79/6-THIOGUANINE, Metabolic Activation: NONE, Method: REPLATING): inactive; negative
